Reference: PubChem BioAssay (NCI)
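Each compound was tested at five concentrations against cells in 96-well plates for 48 hours. At the TGI there is no net growth.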

Tests used:
Assay in all cases: inhibition of tumour cell growth, NCI panel, 48 h
[1] = test system: EKVX NSCLC
[2] = test system: MOLT-4 leukemia
[3] = test system: SF-539 CNS
[4] = test system: NCI/ADR-RES ovarian
[5] = test system: HL-60(TB) leukemia
[6] = test system: HCC-2998 colon
[7] = test system: SK-MEL-2 melanoma
[8] = test system: OVCAR-8 ovarian
[9] = test system: SF-268 CNS
[10] = test system: OVCAR-3 ovarian
[11] = test system: CCRF-CEM leukemia
[12] = test system: SN12C renal
[13] = test system: HT29 colon
[14] = test system: MDA-MB-231 breast
[15] = test system: PC-3 prostate
[16] = test system: ACHN renal
[17] = test system: SR leukemia
[18] = test system: MALME-3M melanoma
[19] = test system: SW-620 colon
[20] = test system: HCT-15 colon
[21] = test system: T-47D breast
[22] = test system: UACC-62 melanoma
[23] = test system: MCF7 breast
[24] = test system: NCI-H522 lung
[25] = test system: OVCAR-4 ovarian
[26] = test system: CAKI-1 renal
[27] = test system: SK-MEL-28 melanoma
[28] = test system: NCI-H226 lung
[29] = test system: BT-549 breast
[30] = test system: HOP-92 NSCLC
[31] = test system: A549 NSCLC
[32] = test system: UO-31 renal
[33] = test system: SNB-75 CNS
[34] = test system: IGROV1 ovarian
[35] = test system: SF-295 CNS
[36] = test system: M14 melanoma
[37] = test system: RPMI-8226 leukemia
[38] = test system: COLO 205 colon
[39] = test system: HS 578T breast
[40] = test system: U251 CNS
[41] = test system: NCI-H23 lung
[42] = test system: KM12 colon
[43] = test system: NCI-H460 lung
[44] = test system: SK-OV-3 ovarian
[45] = test system: UACC-257 melanoma
[46] = test system: DU-145 prostate
[47] = test system: 786-0 renal
[48] = test system: RXF 393 renal
[49] = test system: OVCAR-5 ovarian
[50] = test system: MDA-MB-435
[51] = test system: K-562 leukemia
[52] = test system: TK-10 renal
[53] = test system: SK-MEL-5 melanoma
[54] = test system: A498 renal
[55] = test system: MDA-N
[56] = test system: LOX IMVI melanoma
[57] = test system: SNB-19 CNS
[58] = test system: HCT-116 colon
[59] = test system: HOP-62 NSCLC

Measured: TGI

O=C(O)CCC(=O)C(=O)O
> 100 µM: all assays above
